PMC3697074 (Journal of medicinal chemistry, 2011)

What follows are molecules tested on P. falciparum K1 (CQ-resistant strain) (assay: Antimalarial activity, chloroquine-resistant strain K1).
Type: cell-based, Plasmodium falciparum

**Q.** For `COc1ccc(F)cc1CNCCCNc1ccnc2cc(Oc3ccccc3)ccc12` [3{1,1,4}], which “antimalarial activity against strain K1 (in words)” value (shortened to “antimalarial activity”) is on record?
**A.** enhanced potency in strain K1

**Q.** `COc1cccc(Oc2ccc3c(NCCCNCc4cc(F)ccc4OC)ccnc3c2)c1` [3{1,3,4}] was tested. Which “antimalarial activity” value did it give?
**A.** enhanced potency in strain K1

**Q.** With `COc1ccc(F)cc1CNCCCNc1ccnc2cc(Oc3ccc(F)cc3)ccc12` [3{1,5,4}] as the molecule, how does the “antimalarial activity” value read?
**A.** enhanced potency in strain K1
